Drawing on publication PMC10978636, “Hydroxy(phenyl)pyruvic acid reductase in Actaea racemosa L.: a putative enzyme in cimicifugic and fukinolic acid biosynthesis” (Planta, 2024), this text covers Km for seven molecules.

A word on the Km: it is the concentration of substrate that gives half-maximal velocity.

The test system of this assay is ArH(P)PR. Briefly: photometric NAD(P)H oxidation at […] nm, Michaelis-Menten fit. Conditions: 0.1 M KPi pH 7.5. It is filed as biochemical, Actaea racemosa.
[1] abbreviates: co-substrate concentration not in main text (Suppl. Table S3).

`O=C(O)C(=O)CO` [β-HP, β-hydroxypyruvic acid]: the Km (1 mM NADPH, error is SEM, substrate inhibition above 1 mM) came out at 260 ± 120 µM.
In the case of `O=C(O)C(=O)Cc1ccc(O)c(O)c1` [DHPP, 3,4-dihydroxyphenylpyruvic acid], the Km (1 mM NADPH) turned out to be 24000 ± 4650 µM.
Same read-out and setting: the result for `O=C(O)C(=O)Cc1ccccc1` [PP, phenylpyruvic acid] reads 5320 ± 2770 µM.
For the molecule `NC(=O)C1=CN([C@@H]2O[C@H](COP(=O)(O)OP(=O)(O)OC[C@H]3O[C@@H](n4cnc5c(N)ncnc54)[C@H](O)[C@@H]3O)[C@@H](O)[C@H]2O)C=CC1` [NADH], under setting [1], the Km is 660 ± 90 µM.
`CC(=O)C(=O)O` [P, pyruvic acid]: for the setting “1 mM NADPH”, the Michaelis constant (Km) was determined as 1890 ± 510 µM.
As for `NC(=O)C1=CN([C@@H]2O[C@H](COP(=O)(O)OP(=O)(O)OC[C@H]3O[C@@H](n4cnc5c(N)ncnc54)[C@H](OP(=O)(O)O)[C@@H]3O)[C@@H](O)[C@H]2O)C=CC1` [NADPH], the Km under setting [1] was determined as 23 ± 4 µM.
For `O=C(O)C(=O)Cc1ccc(O)cc1` [pHPP, 4-hydroxyphenylpyruvic acid], where the note is “1 mM NADPH”, the Km worked out at 1130 ± 120 µM.
